We go through 12 molecules from ChEMBL document CHEMBL1201862, “PubChem BioAssay data set” (2004).

What all share (test): DTP human tumour cell line panel, 48 h
Assay [1] deals with U-251.
Assay [2] deals with SNB-19.
In assay [3] the test system is SN12C.
Assay [4] concerns OVCAR-4.
Assay [5] has as its system CAKI-1.
The subject of assay [6] is UO-31.
The subject of assay [7] is NCI/ADR-RES.
For assay [8], the system named is OVCAR-5.
In assay [9] the test system is NCI-H226.
In assay [10] the test system is BT-549.
For assay [11], the system named is HOP-92.
Assay [12] deals with UACC-62.
Assay [13] deals with HCT-15.
Assay [14] concerns UACC-257.
For assay [15], the system named is OVCAR-8.
Assay [16] relates to HCT-116.
Assay [17] has as its system SF-539.
Assay [18] concerns NCI-H522.
For assay [19], the system named is HCC 2998.

Each structure is given as a SMILES string.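 All cell lines were grown in 96-well plates and treated with compound for 48 hours. GI50: concentration for 50% inhibition of growth.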 Calls of active or inactive are those of the source. Cut-off read from the data, not from the text of the source: active = GI50 up to about 1.1 µM and inactive = higher.

In general, GI50 refers to the concentration that inhibits growth by half. Regarding `COP(=O)(OC)[C@@](O)(c1ccccc1)[C@@H](O)[C@@H](O)c1ccccc1`, the GI50 in assay [1] was 88.5 µM (inactive); in assay [2] it was > 100 µM (inactive); in assay [3] it was > 100 µM (inactive); in assay [4], > 100 µM (inactive); in [5] it was > 100 µM (inactive); in assay [6] it was > 100 µM (inactive). In addition, the GI50 in assay [7], in assay [8], in [9], in [10], in assay [11] and in [12] was > 100 µM (inactive) throughout. The GI50 in [13] was > 100 µM; in assay [14], > 100 µM (inactive); in [15], > 100 µM (inactive); in assay [16], 29.3 µM (inactive); in assay [17], 33.7 µM (inactive); in [18], 37.4 µM (inactive).
Turning to `COP(=O)(OC)C(O)/C=C/c1ccco1` (centres undefined), the GI50 in assay [1], in assay [2], in assay [3], in assay [4], in assay [5] and in assay [6] was > 100 µM (inactive) throughout. Besides, the GI50 in [7], in assay [8], in [9], in assay [10], in assay [11] and in [12] was > 100 µM (inactive) throughout. The concentration for 50% growth inhibition (GI50) in [13] was > 100 µM; in assay [14], > 100 µM (inactive); in assay [15], > 100 µM (inactive); in assay [16] it was > 100 µM (inactive); in assay [18], > 100 µM (inactive).
`N#CCCN(CCC#N)c1ccc(/C=C2\N=C(c3ccccc3)N(NC(N)=S)C2=O)cc1`: the GI50 in assay [1], in assay [2], in assay [3], in [4], in [5] and in assay [6] was > 100 µM (inactive) each time. Also, the GI50 in assay [7], in [8], in [9], in assay [10], in [11] and in [12] was > 100 µM (inactive) in each case. In addition, the 50% growth inhibitory concentration (GI50) was > 100 µM in assay [13]; > 100 µM (inactive) in assay [14]; > 100 µM (inactive) in assay [15]; > 100 µM (inactive) in [16]; > 100 µM (inactive) in assay [17].
For the molecule `Cc1cc(OCc2nc(N)nc(N)c2-c2ccc(Cl)c(Cl)c2)ccc1[N+](=O)[O-]`, the 50% growth inhibitory concentration (GI50) is 0.0889 µM (active) in assay [1]; 0.743 µM (active) in [2]; 0.726 µM (active) in assay [3]; 2.19 µM (inactive) in assay [4]; 0.558 µM (active) in assay [5]; 0.791 µM (active) in assay [6]. Further, the GI50 in [7] was 0.404 µM (active); in [8], 0.45 µM (active); in [9] it was 8.67 µM (inactive); in [10], 1.03 µM (active); in assay [11], 4.92 µM (inactive); in assay [12] it was 0.0585 µM (active). Besides, the GI50 in assay [13] was 0.0893 µM; in [14], 0.0451 µM (active); in assay [15], 0.556 µM (active); in assay [16], 0.0502 µM (active); in assay [17], 0.451 µM (active); in assay [18], 0.893 µM (active).
On to `NC(C(F)(F)F)(C(F)(F)F)P(=O)(Cc1ccccc1)Cc1ccccc1`, for which the GI50 in [1], in [2], in assay [3], in assay [4], in assay [5] and in [6] was > 100 µM (inactive) each time. The GI50 in [7] is > 100 µM (inactive); in assay [8], > 100 µM (inactive); in assay [10], > 100 µM (inactive); in assay [12] it was > 100 µM (inactive); in [13], > 100 µM; in assay [19] it was > 100 µM (inactive). Also, the GI50 in assay [14] was > 100 µM (inactive); in assay [15], > 100 µM (inactive); in assay [16] it was > 100 µM (inactive); in assay [17], 42.8 µM (inactive).
Consider `CC(C)(C)c1cc(C(C)(C)C)c2sc(=O)oc2c1O`, for which the GI50 was 14.2 µM (inactive) in [1]; 17.3 µM (inactive) in [2]; 12.4 µM (inactive) in [3]; 13.6 µM (inactive) in assay [4]; 12.4 µM (inactive) in assay [5]; 11.6 µM (inactive) in [6]. Also, the GI50 in assay [7] was 16.3 µM (inactive); in [8], 18.5 µM (inactive); in [9], 20.2 µM (inactive); in assay [10], 18.7 µM (inactive); in assay [11], 16.8 µM (inactive); in assay [13] it was 12.4 µM. For the same molecule, the GI50 in assay [14] was 5.71 µM (inactive); in assay [15] it was 16.3 µM (inactive); in [16], 12.9 µM (inactive); in assay [17], 16.1 µM (inactive); in assay [18] it was 13.7 µM (inactive).
Turning to `O=C(/C=C/c1ccc(Cl)cc1)c1ccc(Cl)s1`, the GI50 was 32.6 µM (inactive) in [1]; 50.5 µM (inactive) in assay [2]; > 100 µM (inactive) in assay [3]; 69 µM (inactive) in assay [4]; 51.8 µM (inactive) in assay [6]; 72.1 µM (inactive) in [7]. Moreover, the GI50 was > 100 µM (inactive) in [8]; 27 µM (inactive) in [10]; 82.4 µM (inactive) in assay [11]; 23.4 µM (inactive) in assay [12]; 60.3 µM in assay [13]; 22.2 µM (inactive) in assay [19]. Besides, the GI50 in assay [14] was > 100 µM (inactive); in assay [15] it was 55.8 µM (inactive); in assay [16], 10.5 µM (inactive); in assay [17] it was 36.5 µM (inactive); in [18] it was 64.1 µM (inactive).
With `O=C(c1ccccc1)c1ccc2c(c1)NC(=O)c1ccccc1SSc1ccccc1C(=O)N2`, the GI50 in [1], in assay [2], in assay [3], in assay [4], in [5] and in [6] was > 100 µM (inactive) in each case. In addition, the GI50 in [7], in assay [8], in assay [9], in assay [10], in assay [11] and in [12] was > 100 µM (inactive) each time. The concentration for 50% growth inhibition (GI50) was > 100 µM in assay [13]; > 100 µM (inactive) in [14]; > 100 µM (inactive) in assay [15]; > 100 µM (inactive) in [16]; > 100 µM (inactive) in assay [17]; > 100 µM (inactive) in assay [18].
Turning to `Oc1cccc(-c2nc3cc(F)ccc3s2)c1`, the GI50 in assay [1] was 24.5 µM (inactive); in assay [2] it was 24.4 µM (inactive); in [3] it was 23.4 µM (inactive); in assay [4] it was 9.42 µM (inactive); in assay [5], 15.1 µM (inactive); in [6] it was 14.5 µM (inactive). Further, the GI50 in assay [7] was 17.4 µM (inactive); in assay [8] it was 21.4 µM (inactive); in assay [9], 9.46 µM (inactive); in [10], 16.9 µM (inactive); in [12] it was 14.5 µM (inactive); in [13] it was 11.2 µM. Moreover, the GI50 is 9.02 µM (inactive) in assay [19]; 13.9 µM (inactive) in [14]; 20.6 µM (inactive) in assay [15]; 21.3 µM (inactive) in assay [16]; 19.4 µM (inactive) in [17]; 10.6 µM (inactive) in [18].
For the molecule `CC(C)CNC(=O)O`, the GI50 in assay [1], in assay [2], in assay [3], in [4], in assay [5] and in [6] was > 100 µM (inactive) in each case. The GI50 in assay [7], in assay [8], in assay [9], in [10], in [11] and in assay [12] was > 100 µM (inactive) throughout. The GI50 in [13] is > 100 µM; in [14], > 100 µM (inactive); in assay [15] it was > 100 µM (inactive); in assay [16] it was > 100 µM (inactive); in assay [17], > 100 µM (inactive); in assay [18] it was > 100 µM (inactive).
Turning to `CSc1nc(=S)[nH]c2[nH]nc(C)c12`, the GI50 in [1], in [2], in [3], in [4], in assay [5] and in assay [6] was > 100 µM (inactive) in each case. For the same molecule, the GI50 in [7] was > 100 µM (inactive); in assay [8], > 100 µM (inactive); in assay [9] it was > 100 µM (inactive); in assay [10], > 100 µM (inactive); in assay [12], > 100 µM (inactive); in assay [13] it was > 100 µM. Further, the GI50 is > 100 µM (inactive) in [19]; > 100 µM (inactive) in assay [14]; > 100 µM (inactive) in [15]; > 100 µM (inactive) in assay [16]; > 100 µM (inactive) in [17]; 55 µM (inactive) in assay [18].
For `N#CS/C(Cl)=C(/C(Cl)=C(Cl)Cl)[N+](=O)[O-]`, the GI50 was 35.8 µM (inactive) in assay [1]; 1.89 µM (inactive) in assay [2]; 36.9 µM (inactive) in assay [3]; 48.3 µM (inactive) in assay [4]; 35.4 µM (inactive) in assay [5]; 24.5 µM (inactive) in assay [6]. Besides, the GI50 in assay [7] is 28.4 µM (inactive); in [8], > 100 µM (inactive); in [9] it was > 100 µM (inactive); in assay [10] it was 36.8 µM (inactive); in assay [12], 47.2 µM (inactive); in [13], 20.9 µM. Moreover, the GI50 is 39.8 µM (inactive) in assay [19]; 36.6 µM (inactive) in assay [14]; 34.4 µM (inactive) in assay [15]; 25.4 µM (inactive) in assay [16]; 32.9 µM (inactive) in assay [17].
